From publication PMC10443802, “Targeting a xenobiotic transporter to ameliorate vincristine-induced sensory neuropathy” (JCI Insight, 2023)
Where “and” joins values, the source holds several entries; their conditions need not be identical. Equal values may be shown once.

Key:
LYN kinase = biological target: T1, LYN kinase (Mus musculus, UniProt P25911); assay: Phosphorylation of LYN kinase in DRG of mice (phospho-LYN/total LYN); format: in vivo
T1 construct: from tissue
Method: mg/kg; p.o.) wild-type mice, using specific antibodies for phospho-LYN and total LYN (n = 3 per group).
(C) Mechanical allodynia in wild-type mice and LYN-deficient [LYN(-/-)] mice 24 h after a single dose of
Data presented represent the mean (bars) ± SEM (error
bars), and paw sensitivity is expressed as a percentage over baseline values. Statistical analysis was […]

OATP1B2 = assay: Plasma level and DRG/plasma ratio of α-tocopherol in mice (biomarker of OATP1B2 function); format: in vivo, mouse; settings: WT mice treated with the inhibitor; plasma
hOATP1B1 = biological target: T2, hOATP1B1 (Homo sapiens, UniProt Q9Y6L6); assay: Inhibition of EβG uptake in HEK293 cells overexpressing hOATP1B1; settings: inhibitor 10 μM, 15-min pre-incubation
T2 sequence (Q9Y6L6 1-691): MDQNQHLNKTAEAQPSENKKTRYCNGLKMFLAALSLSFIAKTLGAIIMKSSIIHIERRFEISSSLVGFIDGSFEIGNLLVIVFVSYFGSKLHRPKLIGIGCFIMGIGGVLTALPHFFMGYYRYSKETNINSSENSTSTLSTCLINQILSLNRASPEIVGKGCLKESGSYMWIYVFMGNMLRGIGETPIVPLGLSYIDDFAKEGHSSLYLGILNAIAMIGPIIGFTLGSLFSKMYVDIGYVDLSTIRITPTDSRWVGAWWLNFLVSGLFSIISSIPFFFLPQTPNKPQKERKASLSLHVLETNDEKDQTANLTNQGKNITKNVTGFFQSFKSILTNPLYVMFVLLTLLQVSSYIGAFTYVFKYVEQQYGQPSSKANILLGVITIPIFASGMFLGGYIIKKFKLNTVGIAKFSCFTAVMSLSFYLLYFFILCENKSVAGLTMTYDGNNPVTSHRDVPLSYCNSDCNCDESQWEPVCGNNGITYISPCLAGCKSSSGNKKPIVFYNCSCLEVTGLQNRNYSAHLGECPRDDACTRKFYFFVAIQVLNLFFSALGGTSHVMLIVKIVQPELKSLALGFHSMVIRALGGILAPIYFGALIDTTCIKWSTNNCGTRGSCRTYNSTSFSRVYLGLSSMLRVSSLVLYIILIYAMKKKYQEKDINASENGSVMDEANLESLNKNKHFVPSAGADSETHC

[1] = Plasma pharmacokinetics of nilotinib in mice; format: in vivo, mouse; settings: OATP1B2(-/-) mice; for concentration at […]: DBA/1LacJ, mouse, plasma, oral, Plasma concentration of nilotinib
Method: Pharmacokinetic studies. Pharmacokinetic studies were performed following an established protocol […]
0.5% hydroxypropyl-methylcellulose in water) was administered at a dose of 10 mg/kg . Serial whole blood samples (0.25, 0.5, 1, 2, 4, and 6 h) were collected from the submandibular vein for the initial three time - points, from the retro-orbital sinus vein for the subsequent two time-points, and cardiac puncture at the terminal time-point. Blood samples were centrifuged at 11,000 rpm for 5 min, and the plasma supernatants collected and stored at -80°C until analysis by a validated method based on reversed -phase liquid chromatography coupled to tandem mass-spectrometric detection (LC-MS/MS). Livers were collected from the same animals at endpoint and, to prevent continuing metabolic activity, tissues were snap frozen using liquid nitrogen. […]
mg/kg or 100 mg/kg, and after 1.5 h, plasma, liver, and whole DRG were collected. All plasma and tissue specimens were stored at -80°C until further processing. […]
were collected at the final time point. […]
specimens were stored at -80°C until further processing. All tissues were homogenized with 5-mm […]
Finally, the beads were removed, and
WinNonlin version 8.0 (Certara). […]
of the data from the concentration-time curves.
Determination of drug levels. […]
column was maintained at 50°C.

HL-60 = assay: Cytotoxicity of vincristine with or without nilotinib, MTT assay, HL-60; format: cell-based, human; settings: individual replicates
MOLT4 = assay: Cytotoxicity of vincristine with or without nilotinib, MTT assay, MOLT4; format: cell-based, human; settings: vincristine alone, individual replicates
hOAT1 = hOAT1 (Homo sapiens, UniProt Q4U2R8); assay: Vincristine uptake screen, HeLa cells overexpressing hOAT1; format: in vitro ADME
Sequence of hOAT1 (Q4U2R8 whole entry): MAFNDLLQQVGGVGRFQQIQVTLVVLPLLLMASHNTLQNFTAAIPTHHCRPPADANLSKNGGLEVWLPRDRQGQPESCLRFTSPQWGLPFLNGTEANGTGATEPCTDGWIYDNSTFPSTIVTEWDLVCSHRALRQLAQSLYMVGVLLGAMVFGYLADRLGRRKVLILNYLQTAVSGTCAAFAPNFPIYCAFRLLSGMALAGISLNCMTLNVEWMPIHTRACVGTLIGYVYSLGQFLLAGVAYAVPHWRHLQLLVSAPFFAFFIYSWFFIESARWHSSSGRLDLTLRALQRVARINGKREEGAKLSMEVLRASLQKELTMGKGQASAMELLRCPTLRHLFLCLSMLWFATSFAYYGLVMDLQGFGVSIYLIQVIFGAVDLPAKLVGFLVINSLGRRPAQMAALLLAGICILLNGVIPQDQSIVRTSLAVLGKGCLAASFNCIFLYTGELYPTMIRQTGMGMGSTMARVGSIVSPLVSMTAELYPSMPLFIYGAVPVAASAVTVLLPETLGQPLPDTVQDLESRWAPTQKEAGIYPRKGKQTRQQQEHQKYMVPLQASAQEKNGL
Method: Relative uptake is expressed as percentage change compared with empty vector controls (n = 4–14 per group). […] Human OATP1B1 and OATP1B3 transporter–overexpressed cells were used as positive controls; empty vector controls were used as the negative control. […] Mechanical allodynia (C), thermal hyperalgesia (D), and sciatic nerve maximal action potential amplitudes (E) are expressed as percentage change relative to baseline values (n = 6–8 per group). Statistical analysis was performed using a 2-way ANOVA with Bonferroni’s post hoc test. **P < 0.01, ***P < 0.001, ****P < 0.0001, compared with baseline values. […] Data are shown as mean ± SEM. […]
transfected with transporters of interest, including hOAT1, hOAT3, hOAT4, hOATP1A2, hOATP3A1, hOATP4A1, hOATP5A1, hOATP1C1, hOATP1B1, hOATP1B3, hOATP2B1, hOCT1, hOCT2, hOCTN1, hOCTN2, hASBT, hNTCP, hNPT1, hMATE1, hOSTα/β, hPEPT1, hPEPT2, rOatp1a1, rOatp1a4, rOatp1a5, rOatp1b2, rNtcp, rAsbt, rOat1, and rOct1. Cells were transfected with expression plasmid or vector control lacking any insert using Lipofectin reagent (Invitrogen). […] The cellular radioactivity was quantified by liquid scintillation counting as described above. […]
Samples were analyzed using real-time quantitative PCR and Taqman Probes (Applied Biosystems). The relative gene expression was determined using the ΔΔCt method, and normalized to the mouse or human housekeeping gene, GAPDH. […]

T1 sequence (P25911 whole entry): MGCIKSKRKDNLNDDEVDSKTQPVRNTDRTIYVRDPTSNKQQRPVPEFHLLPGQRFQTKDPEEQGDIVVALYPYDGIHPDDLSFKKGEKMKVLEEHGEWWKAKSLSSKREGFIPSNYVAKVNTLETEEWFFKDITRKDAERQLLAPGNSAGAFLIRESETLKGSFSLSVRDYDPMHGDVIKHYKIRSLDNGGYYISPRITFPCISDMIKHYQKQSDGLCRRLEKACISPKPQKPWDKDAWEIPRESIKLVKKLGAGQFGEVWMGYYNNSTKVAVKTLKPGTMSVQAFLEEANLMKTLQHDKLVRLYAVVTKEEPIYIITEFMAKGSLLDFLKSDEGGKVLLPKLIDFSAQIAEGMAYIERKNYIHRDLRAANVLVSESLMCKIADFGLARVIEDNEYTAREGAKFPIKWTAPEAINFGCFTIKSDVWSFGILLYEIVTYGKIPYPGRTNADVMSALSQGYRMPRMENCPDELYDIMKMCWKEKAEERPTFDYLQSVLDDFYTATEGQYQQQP

| Compound | DRG Phosho-LYN/Total LYN (% of Untreated) (LYN kinase; DRG of mice) | Phosphorylated-LYN in DRG neurons (LYN kinase; nilotinib 100 mg/kg p.o., wild-type mice) | Level of α-tocopherol (% of wild-type baseline), Plasma (OATP1B2) | EβG uptake (% of vehicle) (hOATP1B1) | concentration at […] ([1]; 25 mg/kg) [ng/mL] | concentration at […] ([1]; 100 mg/kg) [ng/mL] | Plasma concentration of nilotinib ([1]; 25mg/kg) | Plasma concentration of nilotinib ([1]; 100mg/kg) | IC50 (HL-60; HL-60 cells, vincristine alone) | IC50 (HL-60; Homo sapiens, HL-60, HL-60 cells, vincristine + 1μM Nilotinib) [nM] | IC50 (MOLT4; Homo sapiens, MOLT-4, MOLT4 cells) [nM] | IC50 (MOLT4; MOLT4 cells) | Vincristine uptake (% of vector control) (hOAT1) |
| --- | --- | --- | --- | --- | --- | --- | --- | --- | --- | --- | --- | --- | --- |
| Cc1cn(-c2cc(NC(=O)c3ccc(C)c(Nc4nccc(-c5cccnc5)n4)c3)cc(C(F)(F)F)c2)cn1 [Nilotinib, nilotinib] | 47.9691 % of Untreated and 52.4315 % of Untreated and 37.2669 % of Untreated | significant inhibition of phosphorylated-LYN in DRG neurons | 242.352% and 175.541% and 133.994% | 9.108 % of vehicle and 9.828 % of vehicle and 15.7637 % of vehicle | 8020 | 25800 | 9973.68 ng/mL and 13343.6 ng/mL | 22063.7 ng/mL and 33922 ng/mL | – | – | – | – | – |
| CC[C@]1(O)C[C@H]2CN(CCc3c([nH]c4ccccc34)[C@@](C(=O)OC)(c3cc4c(cc3OC)N(C=O)[C@H]3[C@@](O)(C(=O)OC)[C@H](OC(C)=O)[C@]5(CC)C=CCN6CC[C@]43[C@@H]65)C2)C1 [Vincristine, vincristine] | – | – | – | – | – | – | – | – | 9.13 nM and 3.89 nM and 6.71 nM and 7.31 nM and 6.48 nM and 6.07 nM and 6.3 nM and 8.17 nM and 5.71 nM | 6.98 | 6.88 | 6.2 nM and 9.07 nM and 9.04 nM and 7.56 nM and 10.2 nM and 7.73 nM and 7.86 nM and 6.95 nM | 127.00 % of vector control and 112.00 % of vector control and 76.00 % of vector control and 98.00 % of vector control and 129.00 % of vector control and 120.00 % of vector control and 111.00 % of vector control and 117.00 % of vector control |
